Assay results reported in patent publication US7029915B2, “Method for differentiating rat hepatic stem cells to insulin-producing cells” (University of Florida Research Foundation, Inc., priority 2002, dated 2006).

Key:
[1] = test system: trans-differentiated hepatic stem cells; assay: Insulin content and secretion by immunoprecipitation and Western blotting; assay type: cell-based, rat
Experimental: Measurement of insulin content and secretion by immunoprecipitation and Western blotting. Confluent cultures of trans-differentiated hepatic stem cells were maintained in RPMI 1640 plus 10% fetal calf serum in the presence or absence of 10 mM nicotinamide for 7 days. The cells were then switched to serum-free medium containing 0.5% BSA for 5 hrs, washed twice with serum-free medium, then stimulated with an additional 17.5 mM glucose for 2 hrs. The culture medium was collected and stored at −70° C. for assay of secreted insulin. Intracellular insulin was extracted with lysis buffer. The presence of insulin in the culture media and cell lysates was determined by immunoprecipitation with anti-rabbit-insulin polyclonal antibodies (Santa Cruz Biotechnology), followed by separation of the precipitated material by 18% SDS-PAGE, transfer to nylon membrane, and blotting with anti-insulin antibodies as described (Yang, et al., J. Biol. Chem. 269:7156–7162, 1994). Cell lysates (150 μg) or culture media (1 ml) from each culture were used for the immunoprecipitation. Normal rabbit serum was used as primary antibody control, and culture medium containing 0.5% BSA was used as a control for secreted insulin measurements. […] Insulin content in cells and in the media was determined by pooling cell lysates and culture medium from three separate cultures.

hepatic stem cells = assay: Morphology of spheroid cell clusters in high-glucose hepatic stem cell cultures; assay type: cell-based, rat; conditions: five to seven days in 10 mM nicotinamide, high glucose (23 mM) culture
Experimental: To induce trans-differentiation, the cells were replated and cultured in RPMI 1640 medium supplemented with 10% FCS and 17.5 mM (23 mM final concentration) glucose. After about two months, scattered small spheroid cell clusters began to form on top of the confluent cell monolayer. Individual spheroids from these cell cultures were selected for clonal passage and were subjected several times to the high glucose (23 mM) culturing process described above. The resultant cells reached confluence, and by day 14 formed additional clusters when maintained under the high glucose conditions. […] Multiple clusters also became connected by duct-like structures.

**Q.** `NC(=O)c1cccnc1` [nicotinamide] was tested. Which “increase of insulin in cell lysates versus untreated cells (densitometric analysis)” value ([1]; 10 mM nicotinamide for 7 days before stimulation with additional 17.5 mM glucose for 2 hrs, cell lysates) did it give?
**A.** 3.4 times

**Q.** What about the “levels of insulin detected in cell lysates and secreted into culture medium” value ([1]; growth in nicotinamide before glucose stimulation, Western blot, FIG. 2) of the same compound?
**A.** increased

**Q.** And the “number and dimension of spheroid cell clusters” value (hepatic stem cells)?
**A.** markedly increased
